Measured values from patent EP0929299B1, “SUBSTITUTED 1,2,3,4-TETRAHYDRO-2-DIBENZOFURANAMINES AND 2-AMINOCYCLOHEPTA(b)BENZOFURANS” (ELI LILLY AND COMPANY, priority 1996, dated 1998).

System: neuronal protein extravasation
Assay: Neuronal protein extravasation in dura after electrical stimulation of the trigeminal ganglion (Evans Blue)
Format: in vivo, Harlan Sprague-Dawley rats or guinea pigs
Procedure: Harlan Sprague-Dawley rats (225-325 g) or guinea pigs from Charles River Laboratories (225-325 g) were anesthetized with sodium pentobarbital intraperitoneally (65 mg/kg or 45 mg/kg respectively) and placed in a stereotaxic frame (David Kopf Instruments) with the incisor bar set at - 3.5 mm for rats or -4.0 mm for guinea pigs. Following a midline sagital scalp incision, two pairs of bilateral holes were drilled through the skull (6 mm posteriorly, 2.0 and 4.0 mm laterally in rats; 4 mm posteriorly and 3.2 and 5.2 mm laterally in guinea pigs, all coordinates referenced to bregma). Pairs of stainless steel stimulating electrodes (Rhodes Medical Systems, Inc.) were lowered through the holes in both hemispheres to a depth of 9 mm (rats) or 10.5 mm (guinea pigs) from dura.
The femoral vein was exposed and a dose of the test compound was injected intravenously (1 mL/kg). […]
A fluorescence microscope (Zeiss) equipped with a grating monochromator and a spectrophotometer was used to quantify the amount of Evans Blue dye in each sample. An excitation wavelength of approximately 535 nm was utilized and the emission intensity at 600 nm was determined. […] This facilitated the computer-controlled movement of the stage with fluorescence measurements at 25 points (500 µm steps) on each dural sample. The mean and standard deviation of the measurements was determined by the computer. […]

**Q.** With `O=C(O)C(=O)O.Oc1ccc2[nH]cc(C3CCNCC3)c2c1` [Compound III, 5-hydroxy-3-(4-piperidinyl)-1H-indole oxalate] as the compound, how does the “Inhibition of Protein Extravasation i.v. ID50” value (i.v., 10 minutes before stimulation of the trigeminal ganglion, species (rat or guinea pig) not given, ID50 approximated from dose-response curve) read?
**A.** Its value is 8.9e-09 mmol/kg.

**Q.** How did the “Inhibition of Protein Extravasation i.v. ID50 (mMol/kg)” value (iv) turn out when `CCN(CC)C1CCc2cccc(Cl)c2C1.Cl` (centres unmarked) [Compound IV, 8-chloro-2-diethylamino-1,2,3,4-tetrahydronaphthalene hydrochloride] was run?
**A.** Its value is 1.2x10-^7 mMol/kg.
